Results published in ChEMBL document CHEMBL6177994 (J Med Chem, 2025).
Calls of active or inactive are those of the source. The rule behind the calls is not given here.

Assays:
[1] = Half life in male cynomolgus monkey at 1 mg/kg, iv measured up to 24 hrs by LC-MS/MS analysis; assay type: ADME, organism-based, Macaca fascicularis; settings: in vivo
[2] = Metabolic stability in monkey liver microsomes assessed as half life at 1 uM preincubated for 3 mins with NADPH and measured up to 60 mins by LC-MS/MS analysis; assay type: ADME, Macaca mulatta, Microsome; settings: rhesus monkey, time < 63 min
[3] = Volume of distribution at steady state in male Sprague-Dawley rat at 1 mg/kg, iv measured up to 24 hrs by LC-MS/MS analysis; assay type: ADME, organism-based; settings: in vivo, read-out: Vdss
[4] = AUC (0 to t) in male cynomolgus monkey at 1 mg/kg, iv measured up to 24 hrs by LC-MS/MS analysis; assay type: ADME, organism-based, Macaca fascicularis; settings: in vivo
[5] = molecular target: Protein cereblon/GTPase HRas (Homo sapiens) (UniProt P01112+Q96SW2); experiment: PROTAC activity at CRBN/HRAS in human MKN-1 cells assessed as […] degradation 0.061 to 1000 nM measured after 24 hrs by immunoblot analysis; assay type: cell-based; settings: dose 0.061-1000 nM
Protein cereblon/GTPase HRas (Homo sapiens), sequence (P01112 whole entry, looked up): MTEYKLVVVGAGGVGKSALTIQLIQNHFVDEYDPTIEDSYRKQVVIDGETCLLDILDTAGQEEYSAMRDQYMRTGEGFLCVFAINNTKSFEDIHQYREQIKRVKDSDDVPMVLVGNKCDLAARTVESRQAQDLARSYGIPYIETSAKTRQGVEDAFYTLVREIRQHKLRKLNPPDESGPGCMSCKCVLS
Protein cereblon/GTPase HRas (Homo sapiens), sequence (Q96SW2 whole entry, looked up): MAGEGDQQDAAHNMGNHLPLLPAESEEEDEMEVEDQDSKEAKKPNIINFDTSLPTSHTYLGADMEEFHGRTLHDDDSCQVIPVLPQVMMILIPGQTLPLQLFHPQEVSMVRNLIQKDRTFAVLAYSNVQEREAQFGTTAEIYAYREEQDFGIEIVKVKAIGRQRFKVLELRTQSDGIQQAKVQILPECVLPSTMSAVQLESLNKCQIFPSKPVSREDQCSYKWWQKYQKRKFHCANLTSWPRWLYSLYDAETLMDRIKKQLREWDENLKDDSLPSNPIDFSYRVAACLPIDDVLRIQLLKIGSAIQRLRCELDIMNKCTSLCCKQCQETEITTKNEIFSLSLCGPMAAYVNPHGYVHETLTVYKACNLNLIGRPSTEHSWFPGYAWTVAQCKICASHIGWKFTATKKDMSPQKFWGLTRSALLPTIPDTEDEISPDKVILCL

[6] = Drug concentration in male Balb/c nude mouse plasma xenografted with human GP2d cells at 10 mg/kg, iv administered as single dose measured after 168 hrs by LC-MS/MS analysis; assay type: ADME, organism-based
[7] = Plasma protein binding in rat at 2 uM by LC-MS/MS analysis; assay type: ADME, cell-free; settings: read-out: PPB
[8] = Toxicity in female Balb/c nude mouse xenografted with human GP2d cells assessed as drug tolerance at 1 to 10 mg/kg, iv Q2W measured after 28 days; assay type: organism-based; settings: in vivo, 672 h, dose 1-10 mg/kg, time 28 day
AGS = experiment: Antiproliferative activity against human AGS cells harbouring KRAS G12D mutant assessed as inhibition of cell growth measured after 72 hrs by Cell titer glo method; assay type: functional, cell-based
[9] = Drug concentration in male Balb/c nude mouse tumor xenografted with human PK-59 cells at 10 mg/kg, iv administered as single dose measured after 168 hrs by LC-MS/MS analysis; assay type: ADME, organism-based, Neoplasm; settings: read-out: Ct
[10] = Elimination half life in male ICR mouse lung at 10 mg/kg, iv measured up to 336 hrs by LC-MS/MS analysis; assay type: ADME, organism-based; settings: read-out: beta t1/2 (converted)
[11] = Plasma protein binding in mouse at 2 uM by LC-MS/MS analysis; assay type: ADME, cell-free; settings: read-out: PPB
[12] = AUC (0 to t) in male Sprague-Dawley rat at 1 mg/kg, iv measured up to 24 hrs by LC-MS/MS analysis; assay type: ADME, organism-based; settings: in vivo
A-427 = experiment: Antitumor activity against human A-427 cells harbouring KRAS G12D mutant xenografted in female Balb/c nude mouse model assessed as tumor regression at 1 to 10 mg/kg, iv QW administered weekly and measured after 28 days relative to control; assay type: functional; settings: dose 1-10 mg/kg, time 28 day
[13] = Toxicity in female Balb/c nude mouse xenografted with human PK-59 cells assessed as change in body weight at 0.1 to 3 mg/kg, iv QW measured after 28 days; assay type: organism-based; settings: in vivo, 672 h, dose 0.1-3 mg/kg, time 28 day
[14] = Antitumor activity against human PK-59 cells xenografted in female Balb/c nude mouse model assessed as tumor growth inhibition at 0.3 mg/kg, iv QW measured after 28 days relative to control; assay type: functional; settings: PK-59, 672 h, time 28 day, read-out: TGI
[15] = Stability in dog plasma assessed as half life at 1 uM measured up to 120 mins by LC-MS/MS analysis; assay type: ADME, cell-free, Canis lupus familiaris
Panc 04.03 = experiment: Antiproliferative activity against human Panc 04.03 cells harbouring KRAS G12D mutant assessed as inhibition of cell growth measured after 72 hrs by Cell titer glo method; assay type: functional, cell-based
[16] = Antiproliferative activity against human PK-59 cells harbouring KRAS G12D mutant assessed as inhibition of cell growth measured after 72 hrs by Cell titer glo method; assay type: functional, cell-based; settings: PK-59, 72 h
[17] = Half life in male ICR mouse plasma at 10 mg/kg, iv measured after 72 hrs by LC-MS/MS analysis; assay type: ADME, organism-based
[18] = Plasma protein binding in monkey at 2 uM by LC-MS/MS analysis; assay type: ADME, cell-free, Macaca mulatta; settings: rhesus monkey, read-out: PPB
[19] = tested on: Protein cereblon/GTPase KRas (Homo sapiens), P01116+Q96SW2 [G12D]; experiment: In vivo PROTAC activity at CRBN/KRAS G12D mutant in male Balb/c nude mouse xenografted with human PK-59 cells assessed as degradation of KRAS G12D mutant at 10 mg/kg, iv measured up to 168 hrs relative to control; assay type: functional, organism-based
Protein cereblon/GTPase KRas (Homo sapiens), P01116+Q96SW2 [G12D], sequence (P01116 whole entry G12D): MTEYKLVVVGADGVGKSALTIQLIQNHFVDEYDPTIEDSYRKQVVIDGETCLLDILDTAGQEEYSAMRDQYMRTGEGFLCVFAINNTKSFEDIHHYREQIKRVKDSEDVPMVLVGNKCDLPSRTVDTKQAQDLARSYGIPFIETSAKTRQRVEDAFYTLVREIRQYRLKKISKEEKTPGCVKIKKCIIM
Protein cereblon/GTPase KRas (Homo sapiens), P01116+Q96SW2 [G12D], sequence (Q96SW2 whole entry partner): as the sequence (Q96SW2 whole entry, looked up) above

[20] = Stability in mouse plasma assessed as half life at 1 uM measured up to 120 mins by LC-MS/MS analysis; assay type: ADME, cell-free
[21] = Half life in male ICR mouse at 1 mg/kg, iv measured up to 24 hrs by LC-MS/MS analysis; assay type: ADME, organism-based; settings: in vivo
[22] = tested on: Protein cereblon/GTPase KRas (Homo sapiens), P01116+Q96SW2 [G12D]; experiment: PROTAC activity at CRBN/KRAS G12D mutant in human ASPC1 cells assessed as induction of KRAS G12D mutant degradation 0.01 to 100 nM measured after 24 hrs by immunoblot analysis relative to control; assay type: cell-based; settings: dose 0.01-100 nM
[23] = Metabolic stability in rat liver microsomes assessed as intrinsic clearance at 1 uM preincubated for 3 mins with NADPH and measured up to 60 mins by LC-MS/MS analysis; assay type: ADME, Microsome; settings: time < 63 min, read-out: CLH
ASPC1 = experiment: Potency index , ratio of MRTX1133 IC50 to test compound IC50 for antiproliferative activity against human ASPC1 cells assessed as inhibition of cell growth measured after 72 hrs by Cell titer glo method; assay type: functional
[24] = Metabolic stability in human liver microsomes assessed as intrinsic clearance at 1 uM preincubated for 3 mins with NADPH and measured up to 60 mins by LC-MS/MS analysis; assay type: ADME, Microsome; settings: time < 63 min, read-out: CLH
[25] = Toxicity in female Balb/c nude mouse xenografted with human GP2d cells assessed as change in body weight at 1 to 10 mg/kg, iv Q2W measured after 28 days; assay type: organism-based; settings: in vivo, 672 h, dose 1-10 mg/kg, time 28 day
Cytochrome P450 3A4 = Cytochrome P450 3A4 (Homo sapiens, UniProt P08684); experiment: Inhibition of CYP3A4 in human liver microsomes using midazolam as substrate at 10 uM incubated for 15 mins in presence of NADPH by LC/MS analysis; assay type: ADME, Microsome; settings: 0.25 h
Cytochrome P450 3A4, sequence (P08684 whole entry): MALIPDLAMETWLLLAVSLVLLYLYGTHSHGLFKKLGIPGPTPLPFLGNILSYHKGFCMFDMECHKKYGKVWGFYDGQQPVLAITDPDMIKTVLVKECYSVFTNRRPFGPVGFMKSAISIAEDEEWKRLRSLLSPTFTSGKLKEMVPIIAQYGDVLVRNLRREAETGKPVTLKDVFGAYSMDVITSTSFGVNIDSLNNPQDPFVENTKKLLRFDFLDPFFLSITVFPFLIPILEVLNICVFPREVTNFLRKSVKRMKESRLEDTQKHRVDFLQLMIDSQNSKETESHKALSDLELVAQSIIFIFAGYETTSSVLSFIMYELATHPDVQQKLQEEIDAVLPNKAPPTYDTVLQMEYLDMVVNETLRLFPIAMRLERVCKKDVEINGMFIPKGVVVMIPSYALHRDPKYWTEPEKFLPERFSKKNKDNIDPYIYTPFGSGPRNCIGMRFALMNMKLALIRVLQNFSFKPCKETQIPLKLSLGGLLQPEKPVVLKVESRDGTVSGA

[26] = tested on: Protein cereblon/GTPase KRas (Homo sapiens), P01116+Q96SW2 [G12D]; experiment: PROTAC activity at CRBN/KRAS G12D mutant in human ASPC1 cells assessed as induction of KRAS G12D mutant degradation at 10 nM measured after 12 hrs by immunoblot analysis relative to control; assay type: cell-based
Cytochrome P450 2C8 = Cytochrome P450 2C8 (Homo sapiens, UniProt P10632); experiment: Inhibition of CYP2C8 in human liver microsomes using amodiaquine as substrate at 10 uM incubated for 20 mins in presence of NADPH by LC/MS analysis; assay type: ADME, Microsome
Cytochrome P450 2C8, sequence (P10632 whole entry): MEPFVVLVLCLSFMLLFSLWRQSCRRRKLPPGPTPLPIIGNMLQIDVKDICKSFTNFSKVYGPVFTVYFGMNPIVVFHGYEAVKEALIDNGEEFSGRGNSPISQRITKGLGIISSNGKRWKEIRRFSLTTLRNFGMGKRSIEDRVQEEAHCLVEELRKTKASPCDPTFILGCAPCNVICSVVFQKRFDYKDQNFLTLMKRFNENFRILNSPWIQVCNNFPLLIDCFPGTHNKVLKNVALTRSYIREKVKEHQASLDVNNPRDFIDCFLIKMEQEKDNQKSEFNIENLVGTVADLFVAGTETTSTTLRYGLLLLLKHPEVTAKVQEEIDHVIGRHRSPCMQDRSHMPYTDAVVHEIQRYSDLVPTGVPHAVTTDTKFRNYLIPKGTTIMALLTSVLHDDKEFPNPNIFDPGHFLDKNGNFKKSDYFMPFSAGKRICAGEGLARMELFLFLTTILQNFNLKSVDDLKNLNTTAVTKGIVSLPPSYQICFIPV

Compound: C#Cc1c(F)ccc2cc(O)cc(-c3ncc4c(N5CC6CCC(C5)N6)nc(OCC5(CN6CCC7(CC6)CC(N6CCC(c8cc9c(cc8F)c(N8CCC(=O)NC8=O)nn9C)CC6)C7)CC5)nc4c3F)c12
- half-life [1]: 12.4 h
- half-life at 1 µM [2]: 7.22 h
- Vd [3]: 10.3 L/kg
- AUC(0-t) at 24 h [4]: 0.836 µM·h
- Activity [5]: inactive
- concentration at 168 h [6]: 4.1 ng/mL
- fraction unbound at 2 µM [7]: < 0.05
- Activity [8]: Non-toxic
- IC50 (AGS): 1.01 nM
- concentration at 168 h [9]: 719 ng/g
- half-life [10]: 105 h
- fraction unbound at 2 µM [11]: < 0.05
- AUC(0-t) at 24 h [12]: 0.531 µM·h
- Activity (A-427): >30%
- Activity [13]: Non-toxic
- inhibition in vivo at 0.3 mg/kg [14]: 93%
- half-life at 1 µM [15]: 7.22 h
- Activity (Panc 04.03): Active; Compound Showed Stronger Antiproliferative Activity Compared To Mrtx1133
- IC50 [16]: 2.8 nM
- half-life [17]: 15.1 h
- fraction unbound at 2 µM [18]: < 0.05
- Activity [19]: 87.7%
- half-life at 1 µM [20]: 8.88 h
- half-life [21]: 8.82 h
- Emax [22]: 89%
- CLint scaled at 1 µM [23]: 16.6 mL/min/kg
- Ratio IC50 (ASPC1): >10
- CLint scaled at 1 µM [24]: 8.1 mL/min/kg
- Activity [25]: Non-toxic
- inhibition (INH) (Cytochrome P450 3A4): Not_active
- Activity [26]: 90%
- inhibition (INH) (Cytochrome P450 2C8): Not_active
